From patent US20240059703A1 (AMGEN INC., priority 2021, published 2024)
pIC50: −log10 of the molar value.

How the values were obtained:
[1] = system: MIA PaCa-2 (human pancreatic carcinoma) cells; assay: Cell Viability Assay (CellTiter-Glo), MIA PaCa-2; type: cell-based
Procedure: Serially-diluted compound or DMSO was added to the cells, and plates were incubated at 37° C., 5% CO2 for 72 h. Cell viability was measured using a CellTiter-Glo® Luminescent Cell Viability Assay kit (Promega) according to the manufacturer's protocol. The luminescence signal of treated samples was normalized to DMSO control, and data were analyzed using a 4-parameter logistic model to calculate IC50 values.

[2] = system: A549 (human lung carcinoma) cells; assay: Cell Viability Assay (CellTiter-Glo), A549; type: cell-based
Procedure, shortened: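 Luminescent ATP read-out (CellTiter-Glo) after 72 h compound treatment of cells seeded overnight at 1.67E+04 cells/mL in RPMI 1640, 10% FBS; signal relative to DMSO, IC50 by 4-parameter logistic model.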

KRAS G12C = KRAS G12C (Homo sapiens (Human), UniProt P01116, C118A/G12C); assay: 2 h coupled exchange assay; type: biochemical; conditions: Avg 2 h Coupled exchange IC50, 2 h compound pre-incubation
Procedure: The term “2 h coupled exchange assay” or “20 h coupled exchange assay” as used herein refers to the assay described in the Section entitled “BIOLOGICAL EVALUATION.”

[3] = SOS-mediated nucleotide exchange

Sequence of KRAS G12C (P01116 other isoform, or with tags, fused parts or gaps G12C/C118A): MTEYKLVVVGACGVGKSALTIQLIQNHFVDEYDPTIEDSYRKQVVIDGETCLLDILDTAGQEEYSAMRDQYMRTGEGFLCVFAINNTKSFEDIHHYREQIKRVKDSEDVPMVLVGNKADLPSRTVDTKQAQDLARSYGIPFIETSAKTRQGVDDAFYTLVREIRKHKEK

| pIC50 ([1]; 72 h) | pIC50 ([2]; 72 h) | pIC50 (KRAS G12C) | pIC50 ([1]; Homo sapiens, MIA PaCa-2, 72 h) | pIC50 ([2]; Homo sapiens, A549, 72 h) | pIC50 (KRAS G12C; [3]) | SMILES |
| --- | --- | --- | --- | --- | --- | --- |
| 6.32 | < 5.30 | 6.71 | – | – | – | C=CC(=O)N1CC2(CCN(c3nc4c(c(-c5ncccc5C)c3C#N)CCC(c3scnc3C)=C4)C2)C1 (single isomer, unassigned) [Example 23-25, (P)-4-(3-methyl-2-pyridinyl)-7-(4-methyl-1,3-thiazol-5-yl)-2-(2-(2-propenoyl)-2,6-diazaspiro[3.4]octan-6-yl)-5,6-dihydro-3-quinolinecarbonitrile] |
| 6.53 | < 5.30 | 7.74 | – | – | – | C=CC(=O)N1CC2(CCN(c3nc4c(c(-c5cc(O)ccc5Cl)c3C#N)CCN(c3scnc3C)C4)C2)C1 (single isomer, unassigned) [Example 21-24, (P)-4-(2-chloro-5-hydroxyphenyl)-7-(4-methyl-1,3-thiazol-5-yl)-2-(2-(2-propenoyl)-2,6-diazaspiro[3.4]octan-6-yl)-5,6,7,8-tetrahydro-1,7-naphthyridine-3-carbonitrile] |
| – | – | 7.01 | 5.96 | < 5.30 | – | C=CC(=O)N1CC2(CCN(c3nc4c(c(-c5c(O)cccc5Cl)c3C#N)CCC(c3scnc3C)=C4)C2)C1 [Example 23-34, 4-(2-chloro-6-hydroxyphenyl)-7-(4-methyl-1,3-thiazol-5-yl)-2-(2-(2-propenoyl)-2,6-diazaspiro[3.4]octan-6-yl)-5,6-dihydro-3-quinolinecarbonitrile] |
| – | – | 6.52 | 5.34 | 5.08 | – | C=CC(=O)N1CC2(CCN(c3nc4c(c(-c5cccc(O)c5F)c3C#N)CCC(c3scnc3C)=C4)C2)C1 [Example 23-43, 4-(2-fluoro-3-hydroxyphenyl)-7-(4-methyl-1,3-thiazol-5-yl)-2-(2-(2-propenoyl)-2,6-diazaspiro[3.4]octan-6-yl)-5,6-dihydro-3-quinolinecarbonitrile] |
| – | – | 7.48 | 6.20 | 5.36 | – | C=CC(=O)N1CC2(CCN(c3nc4c(c(-c5ccccc5Cl)c3C#N)CCN(c3scnc3C)C4)C2)C1 [Example 21-11] |
| 6.74 | – | 7.72 | – | 4.96 | – | C=CC(=O)N1CC2(CCN(c3nc4c(c(-c5ccccc5C)c3C#N)CC[C@H](c3scnc3C)C4)C2)C1 (single isomer, unassigned) [Example 23-4] |

Second part, the molecule before the results:

| SMILES | pIC50 ([1]; 72 h) | pIC50 ([2]; 72 h) | pIC50 (KRAS G12C) | pIC50 ([1]; Homo sapiens, MIA PaCa-2, 72 h) | pIC50 ([2]; Homo sapiens, A549, 72 h) | pIC50 (KRAS G12C; [3]) |
| --- | --- | --- | --- | --- | --- | --- |
| C=CC(=O)N1CC2(CCN(c3nc4c(c(-c5c(C)ccc6[nH]ncc56)c3F)C[C@H]3C[C@@H]4C3(C)C)C2)C1 (single isomer, unassigned) [Example 14-73] | – | – | 8.00 | 7.96 | < 5.30 | – |
| C=CC(=O)N1CC2(CCN(c3nc4c(c(-c5c(C)ccc6cnn(C)c56)c3C#N)[C@@H]3CC[C@H]4C3)C2)C1 (single isomer, unassigned) [Example 14-15] | – | – | – | 7.17 | < 5.30 | 7.31 |
| C=CC(=O)N1CC2(CCN(c3cc4c(c(-c5c(C)ccc6cnn(C)c56)c3C#N)OCCC4)C2)C1 [Example 2-101, 8-(1,6-dimethyl-1H-indazol-7-yl)-6-(2-(2-propenoyl)-2,6-diazaspiro[3.4]octan-6-yl)-3,4-dihydro-2H-chromene-7-carbonitrile] | – | – | – | 7.43 | 4.87 | 7.55 |
| C=CC(=O)N1CC2(CCN(c3nc4c(c(-c5cccc6cccc(Cl)c56)n3)CCCC4)C2)C1 [Example 1-9, 1-(6-(4-(8-chloro-1-naphthalenyl)-5,6,7,8-tetrahydro-2-quinazolinyl)-2,6-diazaspiro[3.4]octan-2-yl)-2-propen-1-one] | – | – | – | 4.74 | < 4.60 | 5.34 |
| C=CC(=O)N1CC2(CCN(c3nc4c(c(-c5c(C)cnc6[nH]ncc56)c3C#N)CCC(C)(C)C4)C2)C1 [Example 13-151, 7,7-dimethyl-4-(5-methyl-1H-pyrazolo[3,4-b]pyridin-4-yl)-2-(2-(2-propenoyl)-2,6-diazaspiro[3.4]octan-6-yl)-5,6,7,8-tetrahydro-3-quinolinecarbonitrile] | – | – | – | 5.92 | 5.03 | 6.83 |
| C=CC(=O)N1CC2(CCN(c3nc4c(c(-c5c(C)ccc6[nH]ncc56)c3C)CCN(C(C)C)C4)C2)C1 [Example 18-2, 1-(6-(3-methyl-4-(5-methyl-1H-indazol-4-yl)-7-(2-propanyl)-5,6,7,8-tetrahydro-1,7-naphthyridin-2-yl)-2,6-diazaspiro[3.4]octan-2-yl)-2-propen-1-one] | – | – | 6.57 | 7.03 | < 5.30 | – |
| C=CC(=O)N1CC2(CCN(c3nc4ccccc4c(-c4c(C)c(Cl)cc5[nH]ncc45)c3C#N)C2)C1 [Example 14-18, 4-(6-chloro-5-methyl-1H-indazol-4-yl)-2-(2-(2-propenoyl)-2,6-diazaspiro[3.4]octan-6-yl)-3-quinolinecarbonitrile] | – | – | 7.37 | 6.49 | < 5.30 | – |
| C=CC(=O)N1CC2(CCN(c3nc4c(c(-c5cccc(C)c5Cl)c3C#N)COC(C)(C)C4)C2)C1 [Example 13-152, 4-(2-chloro-3-methylphenyl)-7,7-dimethyl-2-(2-(2-propenoyl)-2,6-diazaspiro[3.4]octan-6-yl)-7,8-dihydro-5H-pyrano[4,3-b]pyridine-3-carbonitrile] | – | – | – | 5.71 | 5.04 | 6.10 |
| C=CC(=O)N1CC2(CCN(c3nc4c(c(-c5cc(O)cc6ccccc56)c3C#N)[C@H]3CC[C@@H]4C3)C2)C1 (single isomer, unassigned) [Example 2-40] | 6.28 | 5.70 | – | – | – | 7.34 |
| C=CC(=O)N1CC2(CCN(c3nc4c(c(-c5c(C)ccc6cnn(C)c56)c3C#N)CCC(C)(C)C4)C2)C1 (single isomer, unassigned) [Example 13-150, 4-(1,6-dimethyl-1H-indazol-7-yl)-7,7-dimethyl-2-(2-(2-propenoyl)-2,6-diazaspiro[3.4]octan-6-yl)-5,6,7,8-tetrahydro-3-quinolinecarbonitrile] | 5.40 | 5.17 | – | – | – | 5.54 |
| C=CC(=O)N1CC2(CCN(c3nc4c(c(-c5cc(O)c(F)cc5Cl)c3C#N)C[C@H]3C[C@@H]4C3(C)C)C2)C1 [Example 14-84, (1R,9R)-6-(2-chloro-4-fluoro-5-hydroxyphenyl)-10,10-dimethyl-4-(2-(2-propenoyl)-2,6-diazaspiro[3.4]octan-6-yl)-3-azatricyclo[7.1.1.0^2,7]undeca-2,4,6-triene-5-carbonitrile] | – | – | 6.84 | 5.67 | < 5.30 | – |
| C=CC(=O)N1CC2(CCN(c3nc4c(c(-c5cccc6cc(O)ccc56)c3C)CCN(C)C4)C2)C1 [Example 18-6, 1-(6-(4-(6-hydroxy-1-naphthalenyl)-3,7-dimethyl-5,6,7,8-tetrahydro-1,7-naphthyridin-2-yl)-2,6-diazaspiro[3.4]octan-2-yl)-2-propen-1-one] | – | – | 7.10 | 7.15 | < 5.30 | – |
| C=CC(=O)N1CC2(CCN(c3nc4c(c(-c5c(N)cccc5F)c3C#N)COC(C)(C)C4)C2)C1 [Example 13-157, 4-(2-amino-6-fluorophenyl)-7,7-dimethyl-2-(2-(2-propenoyl)-2,6-diazaspiro[3.4]octan-6-yl)-7,8-dihydro-5H-pyrano[4,3-b]pyridine-3-carbonitrile] | – | – | – | 6.45 | 4.79 | 6.26 |
